Here are results for 2 sequences from patent publication US7323541B2, “Polypeptide DNA thereof and use of the same” (Takeda Pharmaceutical Company Limited, priority 2001, dated 2008).

Where no end group is shown, it is not given here.

Test [1] addresses T1, TGR23-2 expressing CHO cells (Homo sapiens, UniProt Q6W5P4, N107I/Q344R).
T1 construct: the clones having the cDNA of TGR23-2, which is contained in pTB2174, were selected; expressed in transfected cells; host or cells: hamster CHO/dhfr- cells, vector pAKKO-111H (pAKKO-TGR23-2)
T1 sequence (Q6W5P4 1-371 N107I/Q344R): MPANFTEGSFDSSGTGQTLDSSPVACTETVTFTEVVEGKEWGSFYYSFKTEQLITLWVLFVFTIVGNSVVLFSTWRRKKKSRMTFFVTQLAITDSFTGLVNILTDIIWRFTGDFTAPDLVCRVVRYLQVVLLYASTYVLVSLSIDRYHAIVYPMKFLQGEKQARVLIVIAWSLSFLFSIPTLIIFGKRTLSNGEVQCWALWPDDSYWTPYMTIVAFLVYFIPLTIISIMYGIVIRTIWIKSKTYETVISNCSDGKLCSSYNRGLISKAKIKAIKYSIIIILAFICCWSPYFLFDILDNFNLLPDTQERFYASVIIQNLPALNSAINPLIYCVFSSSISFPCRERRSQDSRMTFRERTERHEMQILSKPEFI
Put plainly: Enhancing activity of intracellular cAMP production. The test is classed as cell-based. The method, then:
The CHO/TGR23-2 cells prepared in Example 1 and selected in Example 2 were plated on 24-well plate at 7×10^4 cells/well and cultured for 48 hours. The cells were washed with αMEM medium (pH7.5) containing 0.2 mM 3-isobutyl-methylxanthine, 0.05% BSA and 20 mM HEPES (hereafter, αMEM medium (pH7.5) containing 0.2 mM 3-isobutyl-methylxanthine, 0.05% BSA and 20 mM HEPES may be referred to as a reaction buffer). Subsequently, 0.5 ml of the reaction buffer was added, and the solution was incubated for 30 minutes in the incubator. The reaction buffer was removed and 0.25 ml of the reaction buffer was freshly added to the cells. Then, the cells were admixed with a sample and 0.25 ml of the reaction buffer containing 2 μM forskoline, and incubated at 37° C. for 30 minutes. Intracellular cAMP was extracted by removing the reaction solution and adding 0.5 ml of the solution for cell lysis attached with cAMP EIA Kit (Applied Biosystems). The cAMP level in the extract was quantified with the same kit. Based on this measured value, a calculation was made using the following formula, and the enhancing/inhibiting activity for cAMP production was represented by % of control. The activity of the sample-adding group was calculated using a control value configured in each plate. % of control=(X−C)/(T−C)×100
X: The cAMP level in the sample-adding group
T: The means of the cAMP level in 3 wells of positive control (no sample, with stimulus of forskoline)
C: The means of the cAMP level in 3 wells of negative control (no sample, without stimulus of forskoline)
In addition, for the same sample, in accordance with the method shown in Example 4, an arachidonic acid metabolite releasing activity was assayed.
Four microlitters each of the above-mentioned HPLC active fractions of rat whole brain extracts (Fraction numbers 18, 20 and 22 to 23) was added to 100 μl of 0.2 M ammonium acetate and incubated at 37° C. for 2 hours with 3 μg of Pronase. Subsequently, Pronase added, was inactivated by heating in boiling water for 10 minutes. To this solution, one ml of distilled water containing 0.05 mg of BSA and 0.05 mg of CHAPS was added. Further, it was lyophilized. For the lyophilized sample, enhancing activity for intracellular cAMP production was assayed by adding to TGR23-2 expressing CHO cells according to the method shown in Example 3.
Human TGR23-2 ligand (1-20) prepared by the method described in Example 17 was administered to TGR23-1 expressing CHO cells and TGR23-2 expressing CHO cells at a variety of concentrations according to the method described in Example 3, and the enhancing activity of intracellular cAMP production was determined.
Further, human TGR23-2 ligand (1-20) and rat TGR23-2 ligand (1-18) prepared by the method described in Example 19 were administered to TGR23-1 expressing CHO cells and TGR23-2 expressing CHO cells at a variety of concentrations, and the same assay as described above was carried out under the condition of no forskolin. A calculation was made using the following formula, and the enhancing activity for cAMP production was represented by % of control: % of control=X/C×100;
X: The cAMP level in the sample-adding group; and
C: Control (no sample, without stimulus of forskoline).
On the technique in general: cAMP levels reflect the balance of adenylyl cyclase and phosphodiesterase activity.

In test [2] the target is T1, TGR23-2 expressing CHO cells. The test can be described thus: Intracellular Ca ion concentration increasing activity using FLIPR. The note with it: variety of concentrations. The test is classed as cell-based. The method, then: An enhancing activity of intracellular Ca^2+ release was assayed using FLIPR (Molecular Devices, Inc.). The CHO/TGR23-2 cells prepared in Example 1 and selected in Example 2 were plated on 96-well plate at 3×10^4 cells/well and cultured for 24 hours. A loading buffer was prepared by adding 1 vial of Fluo 3-AM to 10 ml of Hanks' solution (pH7.4) containing 2.5 mM Probenecid and 20 mM HEPES (hereafter, Hanks' solution (pH7.4) containing 2.5 mM Probenecid and 20 mM HEPES may be referred to as a washing buffer). The culture medium was discarded from the culture plate and 100 μl/well of the loading buffer were added to the cells. Then, the cells were incubated for 60 minutes in the incubator. After the loading buffer was removed from the culture plate and the cells were washed with the washing buffer, the plate was put in place of FLIPR. A sample was prepared by adding a sample buffer, which 2 mg/ml BSA and 1 mg/ml CHAPS were added to the washing buffer, to lyophilized product, stirring and treating by ultrasonication for 30 minutes, and transferred to 96-well sample plate. This sample plate was also put in place for assay. The enhancing activity of intracellular Ca^2+ release was measured as an increase of fluorescent intensity, which is raised by addition of the sample. Human TGR23-2 ligand (1-20) obtained in Example 17 was administered to TGR23-1 expressing CHO cells and TGR23-2 expressing CHO cells at a variety of concentrations according to the method described in Example 5, and the increasing activity of intracellular Ca ion concentration was determined using FLIPR. […] Rat TGR23-2 ligand (1-18) prepared by the method described in Example 19 and mouse TGR23-2 ligand (1-20) prepared by the method described in Example 20 were administered to TGR23-1 expressing CHO cells and TGR23-2 expressing CHO cells at a variety of concentrations according to the method described in Example 5, and the increasing activity of intracellular Ca ion concentration was determined using FLIPR.

Turning to “SFRNGVGSGVKKTSFRRA [rat TGR23-2 ligand (1-18), Ser-Phe-Arg-Asn-Gly-Val-Gly-Ser-Gly-Val-Lys-Lys-Thr-Ser-Phe-Arg-Arg-Ala]”, the “enhancing activity of intracellular cAMP production” value in test [1] (no forskolin) was “enhance the intracellular cAMP production”; in test [1] (with forskolin) it was “specifically exhibits an enhancing activity for cAMP production”. Further, the “increase of intracellular Ca ion concentration” value in test [2] is “clearly enhance an increase of intracellular Ca ion concentration”.

With “SFRNGVGTGMKKTSFQRAKS [human TGR23-2 ligand (1-20)]”, the figures for the “enhancing activity of intracellular cAMP production” value in test [1] (no forskolin) and in test [1] (with forskolin) were “enhance the intracellular cAMP production” and “clearly enhances cAMP production”, respectively. Moreover, the “increase of intracellular Ca ion concentration” value in test [2] was “enhances an increase of intracellular Ca ion concentration”.
